“Also recorded” adds a separate entry of the source.
Experiments:
Format in all cases: in vivo
eicosanoids = assay: Eicosanoid profiling by LC-MS/MS, right brain hemisphere of wild-type and 5×FAD mice; details: 5 mk/kg twice daily for 4 weeks
Method: Eicosanoids were measured by methods of liquid chromatography with tandem mass spectrometry with the use of spiked in deuterated internal standards. Eicosanoids measured included: the 6-keto-PGF1 alpha (6-keto-PGF1a, a hydrolysis product of and proxy for prostacyclin), thromboxane B2 (TXB2, a metabolite/product of and proxy for thromboxane A2), PGD2, PGE2, 15-keto-PGE2 (produced by 15-PGDH degradation of PGE2), tetranor PGE1 (TN-E, a metabolic product produced by beta-oxidation of PGE2), PGJ2, PGF2 alpha (PGF2a), LTB4, 15-HETE, 12-HETE, 8-HETE, 5-HETE, 17-HDHA, 12,13-DiHOME, 14,15-DHET, 11,12-DHET.
FIG. 3 illustrates graphs showing comparison of eicosanoid values in brain of 6 month old male mice that are either wild-type or that are the 5×FAD strain of mice that model Alzheimer's disease. Beginning at 5 months of age both genotypes of mice were injected twice daily with either 5 mk/kg (+)-SW033291 or with matched vehicle control as described in Zhang et al. Science. 2015; 348(6240):aaa2340. PMCID: PMC4481126. Treatment continued twice daily for 4 weeks. Mice were sacrificed at 3 hours following their final injection. After sacrifice the right hemisphere of the brain was dissected, flash frozen, and powdered, and eicosanoids were extracted in aqueous buffer for analysis. Protein concentration of the extracts were assayed, and eicosanoid values were recorded as ng eicosanoid per mg protein.

15-PGDH [1] = molecular target: T1, 15-PGDH (Mus musculus, UniProt Q8VCC1); assay: 15-PGDH enzymatic activity in forebrain after TBI; details: Hpgd+/+ mice, 3 weeks after TBI, 5 mg/kg started 24 hours after injury
T1 construct: brain tissue was dissected 3 weeks later for biochemical determination of 15-PGDH enzymatic activity; from tissue; host or cells: mouse brain (forebrain after TBI; whole brain of 5xFAD and WT littermates)
T1 sequence (Q8VCC1 1-269): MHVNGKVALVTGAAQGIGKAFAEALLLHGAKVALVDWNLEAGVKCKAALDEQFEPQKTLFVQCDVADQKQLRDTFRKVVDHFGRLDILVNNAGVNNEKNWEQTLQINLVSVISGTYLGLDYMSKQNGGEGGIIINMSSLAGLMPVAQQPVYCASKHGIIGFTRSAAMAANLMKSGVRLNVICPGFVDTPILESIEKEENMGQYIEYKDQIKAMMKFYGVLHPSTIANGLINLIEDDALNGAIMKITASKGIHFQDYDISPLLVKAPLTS
Method: (§1) (A) 8 week old 15-PGDH wild-type (Hpgd^+/+) and 15-PGDH knockout (Hpgd^−/−) mice were subjected to TBI, and brain tissue was dissected 2 weeks later for western blot. […] Individual human data points are shown on the graph. Data was analyzed with Student's t test. * p<0.05. All data is mean±SEM. (C) Hpgd^+/+ mice were subjected to TBI at 8 weeks of age and then brain tissue was dissected 3 weeks later for biochemical determination of 15-PGDH enzymatic activity. […] Individual mouse data points are shown on the graph. Data was analyzed with Student's t test. ** p<0.01, **** p<0.0001. All data is mean±SEM. (D) 5×FAD mice and wild type littermates (WT) were administered either 5 mg/kg/day (+)-SW033291 twice daily (or vehicle) from 2 to 6 months of age, and then brains were dissected for biochemical assessment of 15-PGDH activity. […] Individual mouse data points are shown on the graph. Data was analyzed using two-way repeated measures ANOVA; * p<0.05, ** p<0.01, *** p<0.001. All data is mean±SEM.

5×FAD mice [2] = assay: Morris water maze in 5×FAD mice; details: 5 mg/kg/day twice daily from 2 to 6 months
Method: (A) Experimental Timeline: Two month old 5×FAD and wild type (WT) littermates were treated with 5 mg/kg/day twice daily (+)-SW033291 (or vehicle) every day from 2 to 6 months. Cognitive performance was tested using Morris water maze (MWM) as shown in the timeline. (B) Animals were trained to find the hidden platform in the MWM maze for 3 consecutive days (4 trials/day), and latency to find the hidden platform was measured. […] (C) To probe for spatial memory of the hidden platform, one day after the last learning day the animals were tested in the same MWM, except the platform was removed. Memory was measured as latency to first cross the area where the platform was located and the number of times an animal crossed that area. […] Individual mouse data points are shown on the graph. Data was analyzed using two-way repeated measures ANOVA; * p<0.05, ** p<0.01, *** p<0.001. All data is mean±SEM.

15-PGDH [3] = molecular target: T1, 15-PGDH; assay: 15-PGDH activity in whole brain of 5×FAD and WT mice; details: 5 mg/kg/day twice daily from 2 to 6 months of age
Method: as §1

5×FAD mice [4] = assay: Amyloid plaque accumulation (Congo Red staining); details: 5 mg/kg/day twice daily from 2 to 6 months
Method: Two month old 5×FAD and wild type (WT) littermates were treated with 5 mg/kg/day twice daily (+)-SW033291 (or vehicle) every day from 2 to 6 months. At 5 months of age, mice were injected with a single dose of 150 mg/kg bromodeoxyuridine (BrdU) to label replicating cells. At the age of 6 months (28 days after BrdU) mice were transcardially perfused and brains were dissected for examination of fixed tissue. […] Individual mouse data points are shown on the graph. Data was analyzed using two-way repeated measures ANOVA; * p<0.05, ** p<0.01, ***p<0.001, ****p<0.0001. All data is mean±SEM.

[5] = tested on: C57/B6 mice exposed to TBI; assay: Silver staining for axon degeneration after TBI; details: 3 weeks after TBI, 5 mg/kg twice daily started 24 hours after injury
Method: 8 week old C57/B6 mice were exposed to sham-injury or TBI. Twice daily treatment with 5 mg/kg (+)-SW033291, 5 mg/kg (−)-SW033291, or vehicle was started 24 hours after injury and continued throughout the duration of the experiment. Animals were sacrificed by transcardial perfusion 3 weeks after TBI or sham-injury, and fixed brains were processed for silver staining. […] Individual mouse data points are shown on the graph. Data was analyzed using two-way repeated measures ANOVA; * p<0.05, ** p<0.01. All data is mean±SEM.

[6] = wild-type mice, compared to vehicle treated wild-type mice

`CCCC[S+]([O-])c1sc2nc(-c3cccs3)cc(-c3ccccc3)c2c1N` (single isomer, unassigned; (+)) [(+)-SW033291] was tested, and the “eicosanoid values in right hemisphere of the brain (trends)” value (eicosanoids; 5×FAD mice, versus vehicle control treated 5×FAD mice) was “a trend to increased 15-keto-PGE2, TN-E, PGF2a, 12,13-DiHOME, and 11,12-DHET”, the “6-keto-PGF1a, PGE2 in right hemisphere of the brain” value (eicosanoids; [6]) was “significant increase in 6-keto-PGF1a, PGE2” and the “eicosanoid values in right hemisphere of the brain (trends)” value (eicosanoids; [6]) was “a trend to increased TXB2, PGD2, 15-keto-PGE2, TN-E, PGJ2, PGF2a, LTB4, 15-HETE, 12-HETE, 8-HETE, 17-HDHA, 9,10-DiHOME, 14,15-DHET”. For the same compound, the “15-PGDH enzymatic activity in the forebrain” value (15-PGDH [1]) was “restored to normal; also recorded: returned to normal”, the “average (escape) latency to find the hidden platform (learning)” value (5×FAD mice [2]; 5×FAD and WT mice, 3 consecutive days) was “not different between groups” and the “memory deficit / cognitive function (MWM probe)” value (5×FAD mice [2]; 5×FAD mice, 5 mg/kg/day) was “alleviated this deficit”. The “memory deficit / cognitive function (MWM probe)” value (5×FAD mice [2]; 5×FAD mice, listed as (+)-SW033921, 5 mg/kg/day) was “protects cognitive function in 5×FAD mice”, the “number of platform crosses” value (5×FAD mice [2]; MWM probe test, 5×FAD mice) was “significantly decreased in the vehicle-treated 5×FAD group compared to the other groups” and the “15-PGDH activity in the whole brain” value (15-PGDH [3]; 5×FAD mice, compared to 5×FAD vehicle, 5 mg/kg/day) was “significantly lowered 15-PGDH activity in the whole brain; also recorded: returned to normal”. The “15-PGDH activity in the whole brain” value (15-PGDH [3]; WT mice, compared to WT vehicle) was “significantly lowered 15-PGDH activity in the whole brain”, the “amyloid plaque accumulation (Congo Red staining)” value (5×FAD mice [4]) was “does not alter amyloid plaque accumulation; also recorded: does not affect accumulation of amyloid plaque” and the “silver staining (axon degeneration)” value ([5]; 5 mg/kg) was “reduced silver staining equivalent to sham-injury-vehicle”. For the same compound, the “silver staining (axon degeneration)” value ([5]; listed as (+)-SW033921, 5 mg/kg) was “protects wild type mice from axon degeneration after TBI”.
